Results as given in US6541493B1, “Crystals of 5-[{6-(2-fluorobenzyl)oxy-2-naphthyl}methyl]-2,4-thiazolidinedione” (Mitsubishi Chemical Corporation, priority 1999, dated 2003).
Entries after “also recorded” stand apart in the source; their conditions may differ.

What was measured:
Type in all cases: physicochemical
[1] = Stability in a solvent (heated with stirring in suspension); conditions: heated with stirring in suspension in water, methylene chloride, hexane, ethyl acetate-hexane and ethanol
Source text: The type A crystals were heated with stirring in a state of suspension in a variety of solvents including water, methylene chloride, hexane, ethyl acetate-hexane and ethanol, and then examined the absence or presence of a change of the crystal form after the treatment.

[2] = Thermal stability (oven heating, powder X-ray diffraction); conditions: about 50 mg in glass bottle, under atmosphere in oven at 70° C. for 24 hours
Experimental: A sample (about 50 mg) of each of the crystals of types A, C and D was placed in a transparent glass bottle, and heated under atmosphere in an oven at 70° C. for 24 hours. After cooling, powder X-ray diffraction pattern was measured to examine a change of the crystal form.

[3] = Stability to physical impact (grinding in agate mortar, powder X-ray diffraction); conditions: 1 g ground for 1 minute in agate mortar, powder X-ray diffraction pattern compared with before grinding
Experimental: A sample (1 g) of each of the type A-D crystals was placed in an agate mortar, and ground for 1 minute, and powder X-ray diffraction pattern of the ground sample was determined. The pattern was compared with that of the crystal form before the grinding to examine a change of the crystal form.

Q: For `O=C1NC(=O)C(Cc2ccc3cc(OCc4ccccc4F)ccc3c2)S1` (centres unmarked) [Crystal form A, 5-[{6-(2-fluorobenzyl)oxy-2-naphthyl}methyl]-2,4-thiazolidinedione], which “Change of the crystal form after treatment in solvents” value [1] is on record?
A: Its value is “no change”.

Q: What about the “Change of the crystal form after heating” value ([2]; listed as type A) of the same compound?
A: Its value is “no change”.

Q: And the Change after grinding ([3]; listed as A)?
A: Its Change after grinding is “No change”.

Q: With `O=C1NC(=O)C(Cc2ccc3cc(OCc4ccccc4F)ccc3c2)S1` (centres unmarked) [Crystal form B, 5-[{6-(2-fluorobenzyl)oxy-2-naphthyl}methyl]-2,4-thiazolidinedione] as the compound, how does the Change after grinding ([3]; listed as B) read?
A: Its Change after grinding is “Partial changes; also recorded: Partially changed”.

Q: Which “Change of the crystal form after heating” value ([2]; listed as type C) does the source give for `O=C1NC(=O)C(Cc2ccc3cc(OCc4ccccc4F)ccc3c2)S1` (centres unmarked) [Crystal form C, 5-[{6-(2-fluorobenzyl)oxy-2-naphthyl}methyl]-2,4-thiazolidinedione] here?
A: The value was “partial change”.

Q: What about the Change after grinding ([3]; listed as C) of the same compound?
A: The Change after grinding was “No change”.

Q: Which “Change of the crystal form after heating” value [2] does the source give for `O=C1NC(=O)C(Cc2ccc3cc(OCc4ccccc4F)ccc3c2)S1` (centres unmarked) [Crystal form D, 5-[{6-(2-fluorobenzyl)oxy-2-naphthyl}methyl]-2,4-thiazolidinedione] here?
A: The value was “no change”.

Q: What about the Change after grinding ([3]; listed as D) of the same compound?
A: Its Change after grinding is “Partial changes; also recorded: Partially changed”.
